# In patent publication US20250120975A1, “INTEGRIN INHIBITORS FOR TREATMENT OF PRIMARY SCLEROSING CHOLANGITIS” (Pliant Therapeutics, Inc., priority 2023, published 2025):
# “Also recorded” adds a separate entry of the source.
# Assays:
# [1] = tested on: subjects with PSC and suspected liver fibrosis; assay: Phase 2a INTEGRIS-PSC: Itch Numerical Rating Scale (NRS); type: in vivo, human
# Description: In one embodiment is provided a method of reducing itch or pruritus (chronic itching). Itch can be quantified on a 0-10 scale using the Peak Pruritus Numerical Rating Scale (NRS), where 0 is “no itch” and 10 is “worst imaginable itch” over the past 24 hours (Yosipovitch et al., British Journal of Dermatology (2019) 181:761-769, incorporated by reference herein in its entirety). In embodiments, a method of reducing pruritus in a human who has fibrotic liver disease is provided, comprising administering to the human(S)-4-((2-methoxyethyl)(4-(5,6,7,8-tetrahydro-1,8-naphthyridin-2-yl)butyl)amino)-2-(quinazolin-4-ylamino)butanoic acid, or a pharmaceutically acceptable salt thereof. In embodiments, a method of reducing (e.g., ameliorating) pruritus in a human who has fibrotic liver disease (e.g., primary sclerosing cholangitis) is provided, comprising administering to the human(S)-4-((2-methoxyethyl)(4-(5,6,7,8-tetrahydro-1,8-naphthyridin-2-yl)butyl)amino)-2-(quinazolin-4-ylamino)butanoic acid, or a pharmaceutically acceptable salt thereof, as compared to a human who has not been administered(S)-4-((2-methoxyethyl)(4-(5,6,7,8-tetrahydro-1,8-naphthyridin-2-yl)butyl)amino)-2-(quinazolin-4-ylamino)butanoic acid, or a pharmaceutically acceptable salt thereof. […] In further embodiments, pruritus is reduced as measured by a change in itch numerical rating scale from between about 0.8 and about-0.2 at about 12 weeks following a first administration of (S)-4-((2-methoxyethyl)(4-(5,6,7,8-tetrahydro-1,8-naphthyridin-2-yl)butyl)amino)-2-(quinazolin-4-ylamino)butanoic acid, or a pharmaceutically acceptable salt thereof to the human. […]
# [2] = tested on: BALB/c.Mdr2−/− mouse model of biliary fibrosis; assay: Relative and total liver collagen (hydroxyproline); type: in vivo; conditions: 6 weeks
# Excerpt: The tissue source is BALBc.Mdr2-/−male mice that were 6 weeks old. The Mdr2(abcb4)−/− mouse model of sclerosing cholangitis has been previously described and is a model of spontaneously progressive hepatic fibrosis in mice with deletion of the biliary phospholipid flippase on fibrosis-susceptible background (Mdr2(abcb4)^−/−. BALB/c mouse). See N. Ikenaga, et al. (2015) Am J Pathol. 185 (2): 325-334, the entire contents of which are hereby incorporated by reference in their entirety.
# (S)-4-((2-methoxyethyl)(4-(5,6,7,8-tetrahydro-1,8-naphthyridin-2-yl)butyl)amino)-2-(quinazolin-4-ylamino)butanoic acid (or PBS) was dosed once daily orally at 100 mg/kg, 300 mg/kg or 1000 mg/kg (see Table B-2) starting at 6 weeks after birth of the subject and continuing for 6 weeks. All animals were euthanized and necropsied at the end of week 12.
# Liver collagen was determined biochemically as hydroxyproline (OHP). See N. Ikenaga, et al. (2015) Am J Pathol. 185 (2): 325-334, the entire contents of which are hereby incorporated by reference in their entirety. Two fresh liver pieces from the left and right liver lobe (120-160 mg each) were hydrolyzed in 2 mL 6N HCl at a temperature of 110° C. for 16 h. Moreover, 20 μL of hydrolysate was evaporated under N2 and OHP was quantified using the chloramine-T/dimethylamino-benzaldehyde method. OHP levels were used to calculate relative (per 100 mg of wet liver) and total (obtained by multiplying liver weights with relative hepatic OHP) hepatic collagen content.
# [3] = 1000 mg/kg, relative to the vehicle control
compound,measurement,setting,value
"COCCN(CCCCc1ccc2c(n1)NCCC2)CC[C@H](Nc1ncnc2ccccc12)C(=O)O [Bexotegrast, (S)-4-((2-methoxyethyl)(4-(5,6,7,8-tetrahydro-1,8-naphthyridin-2-yl)butyl)amino)-2-(quinazolin-4-ylamino)butanoic acid]",Itch Numerical Rating Scale (NRS) score,"[1]; 320 mg, over 24 weeks, relative to an increase on placebo, Example B-5",did not increase; also recorded: stable score
same,itch (NRS) relative to placebo,"[1]; 40, 80, 160 mg, Week 12, statistical significance for the 160 mg dose, Example B-3",dose dependent reductions
same,itch (NRS) relative to the placebo,"[1]; 40-320 mg, Week 12, statistical significance for the 160 mg, 320 mg groups, Example B-4",dose-dependent reductions
same,reduction in total hepatic collagen,[2]; 1000 mg/kg PO/QD,approximately 75%
same,relative hepatic collagen content (normalized to liver weight),[2]; [3],decreased
same,total hepatic collagen content,[2]; [3],decreased
